Tests used:
[1] = milling, or storage at up to 45° C. at a relative humidity of 25% to 85%; Form I made by the process of WO 2009/069013; cited from earlier work
[2] = EtOH-water mixtures at 25° C.; cited from earlier work
[3] = Equilibration of physical mixtures of Forms I, II and III in water-2-butanone solvent systems (most thermodynamically stable crystal form); format: physicochemical; conditions: for water content of water-2-butanone mixtures in which Form I is thermodynamically stable: slurry equilibrated by aging
Protocol: Each admixture was then equilibrated by aging at its temperature until the relative amounts of each crystalline form remained constant. At the completion of equilibration, each admixture contained a slurry of a single crystal form, or a slurry in which one crystal form dominates. This crystal form is the most thermodynamically stable at the admixture conditions of temperature and water concentration. Form. […] Similarly, Form I was determined to be thermodynamically stable in water-2-butanone mixtures at about 25° C. when the mixtures contained from 3.5 to 6.0 wt. % water, and at about 50° C. when the mixtures contained from 5.0 to 8.5 wt. % water. Additional data was collected for the boundary between form I and form III; i.e., at 20° C. […] The data are shown in a phase map of temperature versus wt. % water in FIG. 1.

## Nc1ccn([C@@H]2CS[C@H](CO)O2)c(=O)n1 [Form I]
[1]
  conversion of Form I to Form II: will not convert to Form II
[2]
  water that must be present in EtOH to convert the excess solid to Form I at equilibrium: 18-20%
[3]; 20° C.
  water content in 2-butanone at which Form I is more stable than Form III (Form I/Form III boundary): less than 5.7 wt % water
[3]; 30° C.
  water content in 2-butanone at which Form I is more stable than Form III (Form I/Form III boundary): less than 6.6 wt % water
[3]; about 0° C.
  water content of water-2-butanone mixtures in which Form I is thermodynamically stable: 2.5 to 5.0 wt. % water
[3]; about 25° C.
  water content of water-2-butanone mixtures in which Form I is thermodynamically stable: 3.5 to 6.0 wt. % water
[3]; about 50° C.
  water content of water-2-butanone mixtures in which Form I is thermodynamically stable: 5.0 to 8.5 wt. % water

From patent publication US8796452B2, “Preparation of lamivudine form I” (Merck Sharp & Dohme Corp., priority 2010, dated 2014)
